Assay results from patent US20060069132A1, “Azolecarboxamide herbicides” (priority 2004, published 2006).

Legend:
barnyardgrass [1] = assay: Test B pre-/postemergence herbicide test; format: in vivo, Echinochloa crus-galli; details: for Plant response rating, Barnyardgrass: preemergence; for Barnyardgrass plant response rating: postemergence, visual rating, scale 0 (no effect) to 100 (complete control)
How it was run: (§1)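 Species tested were Echinochloa crus-galli, Ipomoea coccinea, Xanthium strumarium and Oryza sativa, treated both before emergence and at the 1- to 4-leaf stage; rice and barnyardgrass were also tested under flooding at 2 leaves. Greenhouse incubation lasted 13–15 days before visual 0–100 scoring.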

Surinam grass = assay: Test B pre-/postemergence herbicide test; format: in vivo, Urochloa decumbens; details: for Plant response rating, Surinam Grass: preemergence; for Surinam Grass plant response rating: postemergence, visual rating, scale 0 (no effect) to 100 (complete control)
How it was run: (§2)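 Herbicidal effect was judged by eye on a 0–100 scale after plants stood 13 to 15 days in the greenhouse following pre- or postemergence treatment with surfactant-containing formulations.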

cocklebur = assay: Test B pre-/postemergence herbicide test; format: in vivo, Xanthium strumarium; details: for Plant response rating, Cocklebur: preemergence; for Cocklebur plant response rating: postemergence, visual rating, scale 0 (no effect) to 100 (complete control)
How it was run: as §1

corn = assay: Test B pre-/postemergence herbicide test; format: in vivo, Zea mays; details: for Plant response rating, Corn: preemergence; for Corn plant response rating: postemergence, visual rating, scale 0 (no effect) to 100 (complete control)
How it was run: as §2

large crabgrass = assay: Test B pre-/postemergence herbicide test; format: in vivo, Digitaria sanguinalis; details: for Plant response rating, Crabgrass, Large: preemergence; for Crabgrass, Large plant response rating: postemergence, visual rating, scale 0 (no effect) to 100 (complete control)
How it was run: as §2

giant foxtail = assay: Test B pre-/postemergence herbicide test; format: in vivo, Setaria faberi; details: for Plant response rating, Foxtail, Giant: preemergence; for Foxtail, Giant plant response rating: postemergence, visual rating, scale 0 (no effect) to 100 (complete control)
How it was run: as §2

lambsquarters = assay: Test B pre-/postemergence herbicide test; format: in vivo, Chenopodium album; details: for Plant response rating, Lambsquarters: preemergence; for Lambsquarters plant response rating: postemergence, visual rating, scale 0 (no effect) to 100 (complete control)
How it was run: as §2

morningglory = assay: Test B pre-/postemergence herbicide test; format: in vivo, Ipomoea coccinea; details: for Morningglory plant response rating: postemergence, visual rating, scale 0 (no effect) to 100 (complete control)
How it was run: as §1

pigweed = assay: Test B pre-/postemergence herbicide test; format: in vivo, Amaranthus retroflexus; details: for Plant response rating, Pigweed: preemergence; for Pigweed plant response rating: postemergence, visual rating, scale 0 (no effect) to 100 (complete control)
How it was run: as §2

rice [2] = assay: Test B pre-/postemergence herbicide test; format: in vivo, Oryza sativa; details: preemergence
How it was run: as §2

velvetleaf = assay: Test B pre-/postemergence herbicide test; format: in vivo, Abutilon theophrasti; details: for Plant response rating, Velvetleaf: preemergence; for Velvetleaf plant response rating: postemergence, visual rating, scale 0 (no effect) to 100 (complete control)
How it was run: as §2

blackgrass = assay: Test B postemergence herbicide test; format: in vivo, Alopecurus myosuroides; details: postemergence, visual rating, scale 0 (no effect) to 100 (complete control)
How it was run: (§3)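 Plants grow to 1- to 4-leaf stage (2–18 cm) for postemergence spraying, or to 2-leaf stage for the paddy test. Formulated compound is applied. Greenhouse holding lasts 13–15 days. Response is scored visually relative to controls, 0 no effect to 100 complete control; a dash means no result.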

wheat = assay: Test B postemergence herbicide test; format: in vivo, Triticum aestivum; set-up: key to Wheat plant response rating: 0 = no effect, 100 = complete control; details: postemergence, 500 g ai/ha; visual rating, scale 0 (no effect) to 100 (complete control)
How it was run: (§4)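 After treating 2-leaf paddy plants or 2–18 cm postemergence plants (1 to 4 leaves) with formulated chemical, researchers kept them in a greenhouse for 13–15 days. Effects were judged visually versus controls: 0 indicates none, 100 total control.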

wild oat = assay: Test B postemergence herbicide test; format: in vivo, Avena fatua; details: postemergence, visual rating, scale 0 (no effect) to 100 (complete control)
How it was run: as §4

rice [3] = assay: Test B flooded paddy test; format: in vivo, Oryza sativa; details: 1000 g ai/ha, visual rating, scale 0 to 100 (0 no effect, 100 complete control), 13 to 15 days
How it was run: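 Treated at 2-leaf (paddy) or 1–4-leaf, 2–18 cm (postemergence); greenhouse 13–15 d; visual score vs control, 0 none to 100 complete control; dash = not tested.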

[4] = test system: small flower umbrella sedge; assay: Test B flooded paddy test; format: in vivo, Cyperus difformis; details: 1000 g ai/ha, visual rating, scale 0 to 100 (0 no effect, 100 complete control), 13 to 15 days
How it was run: as §3

ducksalad [5] = assay: Test B flooded paddy test; format: in vivo, Heteranthera limosa; details: 1000 g ai/ha, visual rating, scale 0 to 100 (0 no effect, 100 complete control), 13 to 15 days
How it was run: as §3

barnyardgrass [6] = assay: Test B flooded paddy test; format: in vivo, Echinochloa crus-galli; details: 1000 g ai/ha, visual rating, scale 0 to 100 (0 no effect, 100 complete control), 13 to 15 days
How it was run: as §3

rice [7] = assay: Test C flooded paddy test; format: in vivo, Oryza sativa
How it was run: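 Plants were grown to the 1- to 4-leaf stage (2–18 cm) and then treated postemergence, or grown to the 2-leaf stage for the flooded paddy test. They were held in a greenhouse for 12 to 14 days and then scored by eye against controls, where 0 is no effect and 100 is complete control.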

[8] = test system: smallflower umbrella sedge; assay: Test C flooded paddy test; format: in vivo, Cyperus difformis
ducksalad [9] = assay: Test C flooded paddy test; format: in vivo, Heteranthera limosa
barnyardgrass [10] = assay: Test C flooded paddy test; format: in vivo, Echinochloa crus-galli
How it was run: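 Weeds and wheat were sprayed after emergence, at a height of 2 to 18 cm (1–4 leaves), and paddy barnyardgrass was flooded and treated at two leaves. Assessment took place 12–14 days later in the greenhouse on a 0-to-100 visual control scale. A dash means no result was obtained.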

[11] = 500 g ai/ha, visual rating 0-100, 0 no effect, 100 complete control
[12] = 125 g ai/ha, 0 to 100 scale, 0 is no effect, 100 is complete control
[13] = 62 g ai/ha, scale 0 to 100 (0 no effect, 100 complete control)
[14] = 125 g ai/ha, scale 0 to 100 (0 no effect, 100 complete control)
[15] = 250 g ai/ha, scale of 0 to 100, 0 is no effect, 100 is complete control
[16] = 500 g ai/ha, visual rating after 12 to 14 days, scale 0 to 100 (0 no effect, 100 complete control)

`CCn1nc(C(C)(C)C)cc1C(=O)Nc1cc(C(=O)N2CC=CC2)ccn1` [Compound 142] was tested, and the “Plant response rating, Barnyardgrass” value (barnyardgrass [1]; [11]) was 100, the “Barnyardgrass plant response rating” value (barnyardgrass [1]; 125 g ai/ha) was 0 and the “Barnyardgrass plant response rating” value (barnyardgrass [1]; 500 g ai/ha) was 10. For the same molecule, the “Plant response rating, Barnyardgrass” value (barnyardgrass [1]; [12]) was 70, the “Plant response rating, Surinam Grass” value (Surinam grass; [11]) was 60 and the “Surinam Grass plant response rating” value (Surinam grass; 125 g ai/ha) was 10. For the same molecule, the “Surinam Grass plant response rating” value (Surinam grass; 500 g ai/ha) was 20, the “Plant response rating, Surinam Grass” value (Surinam grass; [12]) was 10 and the “Plant response rating, Cocklebur” value (cocklebur; [11]) was 40. The “Cocklebur plant response rating” value (cocklebur; 125 g ai/ha) was 40, the “Cocklebur plant response rating” value (cocklebur; 500 g ai/ha) was 40 and the “Plant response rating, Cocklebur” value (cocklebur; [12]) was 30. For the same molecule, the “Plant response rating, Corn” value (corn; [11]) was 0, the “Corn plant response rating” value (corn; 125 g ai/ha) was 0 and the “Corn plant response rating” value (corn; 500 g ai/ha) was 0. The “Plant response rating, Corn” value (corn; [12]) was 0, the “Plant response rating, Crabgrass, Large” value (large crabgrass; [11]) was 100 and the “Crabgrass, Large plant response rating” value (large crabgrass; 125 g ai/ha) was 0. The “Crabgrass, Large plant response rating” value (large crabgrass; 500 g ai/ha) was 10, the “Plant response rating, Crabgrass, Large” value (large crabgrass; [12]) was 80 and the “Plant response rating, Foxtail, Giant” value (giant foxtail; [11]) was 100. The “Foxtail, Giant plant response rating” value (giant foxtail; 125 g ai/ha) was 30, the “Foxtail, Giant plant response rating” value (giant foxtail; 500 g ai/ha) was 30 and the “Plant response rating, Foxtail, Giant” value (giant foxtail; [12]) was 60. For the same molecule, the “Plant response rating, Lambsquarters” value (lambsquarters; [11]) was 100, the “Lambsquarters plant response rating” value (lambsquarters; 125 g ai/ha) was 60 and the “Lambsquarters plant response rating” value (lambsquarters; 500 g ai/ha) was 80. The “Plant response rating, Lambsquarters” value (lambsquarters; [12]) was 100, the “Plant response rating, Morningglory” value (morningglory; 500 g ai/ha, visual rating 0-100, 0 no effect, 100 complete control, preemergence) was 30 and the “Morningglory plant response rating” value (morningglory; 125 g ai/ha) was 0. For the same molecule, the “Morningglory plant response rating” value (morningglory; 500 g ai/ha) was 50, the “Plant response rating, Pigweed” value (pigweed; [11]) was 100 and the “Pigweed plant response rating” value (pigweed; 125 g ai/ha) was 50. For the same molecule, the “Pigweed plant response rating” value (pigweed; 500 g ai/ha) was 60, the “Plant response rating, Pigweed” value (pigweed; [12]) was 100 and the “Plant response rating, Rice” value (rice [2]; [11]) was 80. The “Plant response rating, Rice” value (rice [2]; [12]) was 30, the “Plant response rating, Velvetleaf” value (velvetleaf; [11]) was 100 and the “Velvetleaf plant response rating” value (velvetleaf; 125 g ai/ha) was 10. The “Velvetleaf plant response rating” value (velvetleaf; 500 g ai/ha) was 60, the “Plant response rating, Velvetleaf” value (velvetleaf; [12]) was 80 and the “Blackgrass plant response rating” value (blackgrass; 125 g ai/ha) was 40. For the same molecule, the “Blackgrass plant response rating” value (blackgrass; 500 g ai/ha) was 40, the “Wheat plant response rating” value (wheat) was 10 and the “Oat, Wild plant response rating” value (wild oat; 125 g ai/ha) was 20. For the same molecule, the “Oat, Wild plant response rating” value (wild oat; 500 g ai/ha) was 20, the “Rice plant response rating” value (rice [3]) was 70 and the “Sedge, Umbrella plant response rating” value [4] was 80. The “Ducksalad plant response rating” value (ducksalad [5]) was 90, the “Barnyardgrass plant response rating” value (barnyardgrass [6]) was 90 and the “Rice plant response rating” value (rice [7]; [13]) was 70. For the same molecule, the “Rice plant response rating” value (rice [7]; [14]) was 70, the “Rice plant response rating” value (rice [7]; [15]) was 70 and the “Plant response rating, Rice” value (rice [7]; [16]) was 70. For the same molecule, the “Sedge, Umbrella plant response rating” value [8, 13] was 75, the “Sedge, Umbrella plant response rating” value [8, 14] was 80 and the “Sedge, Umbrella plant response rating” value [8, 15] was 80. The “Plant response rating, Sedge, Umbrella” value [8, 16] was 90, the “Ducksalad plant response rating” value (ducksalad [9]; [13]) was 75 and the “Ducksalad plant response rating” value (ducksalad [9]; [14]) was 90. For the same molecule, the “Ducksalad plant response rating” value (ducksalad [9]; [15]) was 95, the “Plant response rating, Ducksalad” value (ducksalad [9]; [16]) was 100 and the “Barnyardgrass plant response rating” value (barnyardgrass [10]; [13]) was 50. The “Barnyardgrass plant response rating” value (barnyardgrass [10]; 125 g ai/ha, scale of 0 to 100, 0 is no effect, 100 is complete control) was 65, the “Barnyardgrass plant response rating” value (barnyardgrass [10]; [15]) was 80 and the “Plant response rating, Barnyardgrass” value (barnyardgrass [10]; [16]) was 90.
